Results: patent US20180008629A1, “Compositions and Methods for Treating NLRP3 Inflammasome-Related Diseases and Disorders” (priority 2015, published 2018)

Tested on: H3 acetylation
Test: H3 acetylation in LPS primed BMDMs (western blot)
Format: cell-based, mouse
Settings: LPS primed BMDMs treated with ATP and BHB 1 h
Protocol: FIG. 5, comprising FIGS. 5A-5B, depicts data from experiments examining the mechanism of BHB's anti-inflammasome effects. FIG. 5A is a representative western blot analysis of caspase-1 in BMDMs primed with LPS for 4 hours and stimulated with 2DG, AICAR, Compound C and BHB for 1 h on indicated combinations. FIG. 5B is a representative western blot examining H3 acetylation in LPS primed BMDMs treated with ATP and S- or D-BHB (R-BHB) for 1 h.
The BMDM cell lysates were prepared using RIPA buffer and immediately snap frozen in liquid nitrogen. Samples were left on ice for 1 hour with vortexing every 10 min. Samples were then centrifuge at 14,000 g for 15 min, the supernatant was collected and the protein concentration was determined using the DC Protein Assay (Bio-RAD). The immunoblot analysis was performed using previously described methods (Vandanmagsar et al., 2011, Nat. Med. 17:179-188). The immune complexes were visualized by incubation with horseradish peroxidase-conjugated anti-rat or anti-rabbit secondary antibody (Amersham Biosciences). Immunoreactive bands were visualized by enhanced chemiluminescence (PerkinElmer Life Sciences).

CC(O)CC(=O)O (stereo not drawn) [BHB, β-hydroxybutyrate]
H3 acetylation in macrophages: inducing
